In publication PMC3411353 (Tetrahedron letters, 2010):
Square brackets hold non-standard residues; d marks the D form. Peptide text beside a SMILES is read from it.

Experiments:
KOR [1] = conditions: after a single injection, result in words; ref [1a]; cited from earlier work
KOR [2] = target: KOR (Mus musculus, UniProt P33534); assay: competition radioligand-binding assay, KOR, [^3H]U69,593, mouse brain membranes

| Compound | duration of antagonist activity (KOR [1]) | Ki (KOR [2]) [nM] |
| --- | --- | --- |
| NC(N)=Nc1ccc2[nH]c3c(c2c1)C[C@@]1(O)[C@H]2Cc4ccc(O)c5c4[C@@]1(CCN2CC1CC1)[C@H]3O5 [GNTI, 5′-guanidinonaltrindole] | lasting for weeks to more than a month |  |
| CC(C)[C@@H](CN1CC[C@@](C)(c2cccc(O)c2)[C@@H](C)C1)NC(=O)[C@H]1Cc2ccc(O)cc2CN1 [JDTic, (3R)-7-hydroxy-N-[(1S)-1-[[(3R,4R)-4-(3-hydroxyphenyl)-3,4-dimethyl-1-piperidinyl]methyl]-2-methylpropyl]-1,2,3,4-tetrahydro-3-isoquinolinecarboxamide] | lasting for weeks to more than a month |  |
| O=C1N[C@@H](Cc2ccccc2)C(=O)N2CCC[C@@H]2C(=O)N[C@@H](Cc2ccccc2)C(=O)N[C@H]1Cc1c[nH]c2ccccc12 [L-Trp isomer, cyclo[Phe-D-Pro-Phe-Trp]] (cyclo(FWF[dP])) |  | 21.2 ± 5.6 |
| Oc1ccc2c3c1O[C@H]1c4[nH]c5c(c4C[C@@]4(O)[C@@H](C2)N(CC2CC2)CC[C@]314)C[C@@]1(O)[C@H]2Cc3ccc(O)c4c3[C@@]1(CCN2CC1CC1)[C@H]5O4 [norBNI, norbinaltorphimine] | lasting for weeks to more than a month |  |
